The structures appear in SMILES notation.

This experiment deals with T1, Human O-GlcNAcase (His-Tagged hOGA) (Homo sapiens, UniProt O60502).
T1 sequence (O60502 1-916): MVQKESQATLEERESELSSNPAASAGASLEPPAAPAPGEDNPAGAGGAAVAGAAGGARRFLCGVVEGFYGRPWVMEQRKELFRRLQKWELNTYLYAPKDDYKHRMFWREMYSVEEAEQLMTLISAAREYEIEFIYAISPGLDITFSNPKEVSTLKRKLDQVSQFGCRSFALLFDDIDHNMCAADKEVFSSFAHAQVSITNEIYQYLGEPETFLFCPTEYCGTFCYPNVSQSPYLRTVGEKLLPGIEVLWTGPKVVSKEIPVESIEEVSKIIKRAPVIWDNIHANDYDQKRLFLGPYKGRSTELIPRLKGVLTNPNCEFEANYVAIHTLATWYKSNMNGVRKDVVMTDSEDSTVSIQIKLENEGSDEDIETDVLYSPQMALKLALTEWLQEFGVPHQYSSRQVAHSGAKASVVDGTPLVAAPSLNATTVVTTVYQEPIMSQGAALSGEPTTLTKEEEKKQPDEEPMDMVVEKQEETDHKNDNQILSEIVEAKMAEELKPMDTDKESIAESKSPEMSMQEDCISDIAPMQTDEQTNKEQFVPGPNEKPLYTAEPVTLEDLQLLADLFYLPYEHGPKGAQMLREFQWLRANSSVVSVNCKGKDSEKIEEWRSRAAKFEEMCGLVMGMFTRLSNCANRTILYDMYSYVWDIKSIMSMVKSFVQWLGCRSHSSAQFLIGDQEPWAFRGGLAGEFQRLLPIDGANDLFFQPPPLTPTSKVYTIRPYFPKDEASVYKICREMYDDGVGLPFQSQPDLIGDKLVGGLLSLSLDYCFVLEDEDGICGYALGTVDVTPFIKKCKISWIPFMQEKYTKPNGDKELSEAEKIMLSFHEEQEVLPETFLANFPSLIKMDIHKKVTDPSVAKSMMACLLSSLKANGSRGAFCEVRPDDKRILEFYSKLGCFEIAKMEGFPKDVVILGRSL
The experiment in a line: Human O-GlcNAcase enzyme inhibition assay. The experiment is classed as biochemical. The following applies: 20 nM His-Tagged hOGA, 10 μM FL-GlcNAc, McIlvaine's Buffer pH 6.5, 60 min at room temperature, fluorescence; read-out: OGA IC50. As for the experimental part: Example B01: Human O-GlcNAcase Enzyme Inhibition Assay
5 μl of the appropriate concentration of a solution of inhibitor in Mcllvaine's Buffer (pH 6.5) in 2% DMSO (for a dose response curve calculation) is added into each well of a 384-well plate (Greiner, 781900). Then, 20 nM of His-Tagged hOGA and 10 μM of FL-GlcNAc (Fluorescein mono-beta-D-(2-deoxy-2-N-acetyl) glucopyranoside; Marker Gene Technologies Inc, M1485) were added to the 384-well plate for a final volume of 20 μl. After incubation for 60 min at room temperature, the reaction was terminated by the addition of 10 μL of stop buffer (200 mM glycine, pH 10.75). The level of fluorescence (λexc 485 nm; (λemm 520 nm) was read on a PHERAstar machine. The amount of fluorescence measured was plotted against the concentration of inhibitor to produce a sigmoidal dose response curve to calculate an IC50. All individual data was corrected by subtraction of the background (Thiamet 3 uM=100% inhibition) whilst 0.5% DMSO was considered as the control value (no inhibition).
The IC50 is the concentration that inhibits the measured activity by half. Turning to `Clc1cc(-c2ccccn2)ccc1CN1CCCC1c1ccc2c(c1)OCCO2` (racemic) [Example 43, (3-chloro-4-((2-(2,3-dihydrobenzo[b] [1,4]dioxin-6-yl)pyrrolidin-1-yl)methyl)phenyl) pyridine], the IC50 is 1000 to 10000 nM.
As for `CS(=O)(=O)c1cccc(-c2ccc(CN3CCCC3c3ccc4c(c3)OCCO4)cc2)c1` (racemic) [Example 44, 2-(2,3-dihydrobenzo[b] [1,4]dioxin-6-yl)-1-((3′-(methylsulfonyl)-[1,1′-biphenyl]-4-yl)methyl)pyrrolidine], the figure is 200 to 1000 nM; as for `Cc1cc(-c2cnn(C)c2)ccc1CN1CCCC1c1ccc2c(c1)OCCO2` (racemic) [Example 45, 4-(4-((2-(2,3-dihydrobenzo[b] [1,4]dioxin-6-yl)pyrrolidin-1-yl)methyl)-3-methylphenyl)-1-methyl-1H-pyrazole], 50 to 200 nM; as for `c1cc(-c2ccc(CN3CCCC3c3ccc4c(c3)OCCO4)cc2)ccn1` (racemic) [Example 46, 4-(4-((2-(2,3-dihydrobenzo[b] [1,4]dioxin-6-yl)pyrrolidin-1-yl)methyl)phenyl)pyridine], 200 to 1000 nM.
On to `Cc1cc(-c2ccncc2)ccc1CN1CCCC1c1ccc2c(c1)OCCO2` (racemic) [Example 49, 4-(4-((2-(2,3-dihydrobenzo[b] [1,4]dioxin-6-yl)pyrrolidin-1-yl)methyl)-3-methylphenyl)pyridine], for which the half-maximal inhibitory concentration (IC50) fell in the range of 200 to 1000 nM.
As for `CC(=O)Nc1ncc(CN2CCCC2c2ccc3c(c2)OCCO3)s1` (racemic) [Example 50, N-(5-((2-(2,3-dihydrobenzo[b] [1,4]dioxin-6-yl)pyrrolidin-1-yl)methyl)thiazol-2-yl)acetamide], the figure is 200 to 1000 nM; as for `Brc1cnn(-c2ccc(CN3CCCC3c3ccc4c(c3)OCCO4)cc2)c1` (racemic) [Example 51, 4-bromo-1-(4-((2-(2,3-dihydrobenzo[b] [1,4]dioxin-6-yl)pyrrolidin-1-yl)methyl)phenyl)-1H-pyrazole], 50 to 200 nM.
As for `N#Cc1cnn(-c2ccc(CN3CCCC3c3ccc4c(c3)OCCO4)cc2)c1` (racemic) [Example 52, 1-(4-((2-(2,3-dihydrobenzo[b] [1,4]dioxin-6-yl)pyrrolidin-1-yl)methyl)phenyl)-1H-pyrazole-4-carbonitrile], the figure is 50 to 200 nM; as for `Cc1noc(C)c1-c1ccc(CN2CCCC2c2ccc3c(c2)OCCO3)cc1` (racemic) [Example 54, 4-(4-((2-(2,3-dihydrobenzo[b] [1,4]dioxin-6-yl)pyrrolidin-1-yl)methyl)phenyl)-3,5-dimethylisoxazole], 1000 to 10000 nM; as for `Cc1nn(C)c(C)c1-c1ccc(CN2CCCC2c2ccc3c(c2)OCCO3)cc1` (racemic) [Example 55, 4-(4-((2-(2,3-dihydrobenzo[b] [1,4]dioxin-6-yl)pyrrolidin-1-yl)methyl)phenyl)-1,3,5-trimethyl-1H-pyrazole], 1000 to 10000 nM.
The same measure for `Cc1cc(-c2cccnc2C)ccc1CN1CCCC1c1ccc2c(c1)OCCO2` (racemic) [Example 56, 3-(4-((2-(2,3-dihydrobenzo[b] [1,4]dioxin-6-yl)pyrrolidin-1-yl)methyl)-3-methylphenyl)-2-methylpyridine]: 200 to 1000 nM.
As to `Cc1cc(-c2ccncc2C)ccc1CN1CCCC1c1ccc2c(c1)OCCO2` (racemic) [Example 57, 4-(4-((2-(2,3-dihydrobenzo[b] [1,4]dioxin-6-yl)pyrrolidin-1-yl)methyl)-3-methylphenyl)-3-methylpyridine], the half-maximal inhibitory concentration (IC50) fell in the range of 200 to 1000 nM.
The same measure for `c1csc(-c2ccc(CN3CCCC3c3ccc4c(c3)OCCO4)cc2)n1` (racemic) [Example 58, 2-(4-((2-(2,3-dihydrobenzo[b] [1,4]dioxin-6-yl)pyrrolidin-1-yl)methyl)phenyl)thiazole]: 50 to 200 nM; for `Cc1cnc(-c2ccc(CN3CCCC3c3ccc4c(c3)OCCO4)cc2)s1` (racemic) [Example 59, 2-(4-((2-(2,3-dihydrobenzo[b] [1,4]dioxin-6-yl)pyrrolidin-1-yl)methyl)phenyl)-5-methylthiazole]: 200 to 1000 nM; for `N#Cc1cnc(-c2ccc(CN3CCCC3c3ccc4c(c3)OCCO4)cc2)s1` (racemic) [Example 60, 2-(4-((2-(2,3-dihydrobenzo[b] [1,4]dioxin-6-yl)pyrrolidin-1-yl)methyl)phenyl)thiazole-5-carbonitrile]: 50 to 200 nM.
Take `O=C1COCCN1c1ccc(CN2CCCC2c2ccc3c(c2)OCCO3)cc1` (racemic) [Example 61, 4-(4-((2-(2,3-dihydrobenzo[b] [1,4]dioxin-6-yl)pyrrolidin-1-yl)methyl)phenyl) morpholin-3-one]: the IC50 lay within 200 to 1000 nM.
The same measure for `O=C1CCCCN1c1ccc(CN2CCCC2c2ccc3c(c2)OCCO3)cc1` (racemic) [Example 62, 1-(4-((2-(2,3-dihydrobenzo[b] [1,4]dioxin-6-yl)pyrrolidin-1-yl)methyl)phenyl)piperidin-2-one]: 200 to 1000 nM; for `CS(=O)(=O)c1cncc(-c2ccc(CN3CCCC3c3ccc4c(c3)OCCO4)cc2)c1` (racemic) [Example 63, 3-(4-((2-(2,3-dihydrobenzo[b] [1,4]dioxin-6-yl)pyrrolidin-1-yl)methyl)phenyl)-5-(methylsulfonyl)pyridine]: 50 to 200 nM; for `c1cnc(-c2ccc(CN3CCCC3c3ccc4c(c3)OCCO4)cc2)cn1` (racemic) [Example 64, 2-(4-((2-(2,3-dihydrobenzo[b] [1,4]dioxin-6-yl)pyrrolidin-1-yl)methyl)phenyl)pyrazine]: 50 to 200 nM.
The same measure for `CS(=O)(=O)CCOc1ccc(CN2CCCC2c2ccc3c(c2)OCCO3)cc1` (racemic) [Example 65, 2-(2,3-dihydrobenzo[b] [1,4]dioxin-6-yl)-1-(4-(2-(methylsulfonyl)ethoxy)benzyl)pyrrolidine]: 1000 to 10000 nM; for `O=S1(=O)CCN(c2ccc(CN3CCCC3c3ccc4c(c3)OCCO4)cc2)CC1` (racemic) [Example 66, 4-(4-((2-(2,3-dihydrobenzo[b] [1,4]dioxin-6-yl)pyrrolidin-1-yl)methyl)phenyl)thiomorpholine 1,1-dioxide]: 200 to 1000 nM; for `O=C1CSCCN1c1ccc(CN2CCCC2c2ccc3c(c2)OCCO3)cc1` (racemic) [Example 67, 4-(4-((2-(2,3-dihydrobenzo[b] [1,4]dioxin-6-yl)pyrrolidin-1-yl)methyl)phenyl)thiomorpholin-3-one]: 200 to 1000 nM.
As for `Cc1csc(-c2ccc(CN3CCCC3c3ccc4c(c3)OCCO4)cc2)n1` (racemic) [Example 68, 2-(4-((2-(2,3-dihydrobenzo[b] [1,4]dioxin-6-yl)pyrrolidin-1-yl)methyl)phenyl)-4-methylthiazole], the half-inhibitory concentration (IC50) fell in the range of 200 to 1000 nM.
Turning to `c1cnc(-c2ccc(CN3CCCC3c3ccc4c(c3)OCCO4)cc2)nc1` (racemic) [Example 69, 2-(4-((2-(2,3-dihydrobenzo[b] [1,4]dioxin-6-yl)pyrrolidin-1-yl)methyl)phenyl) pyrimidine], the half-maximal inhibitory concentration (IC50) fell in the range of 50 to 200 nM.
`Cc1cnccc1-c1ccc(CN2CCCC2c2ccc3c(c2)OCCO3)cc1C` (racemic) [Example 70, 4-(4-((2-(2,3-dihydrobenzo[b] [1,4]dioxin-6-yl)pyrrolidin-1-yl)methyl)-2-methylphenyl)-3-methylpyridine]: the IC50 lay in the range of 1000 to 10000 nM.
As for `Cc1cc(CN2CCCC2c2ccc3c(c2)OCCO3)ccc1-c1cccnc1C` (racemic) [Example 71, 3-(4-((2-(2,3-dihydrobenzo[b] [1,4]dioxin-6-yl)pyrrolidin-1-yl)methyl)-2-methylphenyl)-2-methylpyridine], the IC50 lay in the range of 200 to 1000 nM.
The same measure for `Cn1cc(-c2ccc(CN3CCCC3c3ccc4c(c3)OCO4)cc2)cn1` (racemic) [Example 72, 4-(4-((2-(benzo[d] [1,3]dioxol-5-yl)pyrrolidin-1-yl)methyl)phenyl)-1-methyl-1H-pyrazole]: 200 to 1000 nM.

The values above are taken from patent US12016852B2, “Pyrrolidine glycosidase inhibitors” (Asceneuron SA, priority 2018, dated 2024).
